Results published in PMC11356900, “Synthesis, Structural Properties and Biological Activities of Novel Hydrazones of 2-, 3-, 4-Iodobenzoic Acid” (Molecules, 2024).
Converted amounts (≈) assume the structure as drawn.

Legend:
[1] = tested on: Bacillus cereus ATCC 10876; test: Broth microdilution MIC/MBC; details: Bacillus cereus, ATCC10876
[2] = tested on: Staphylococcus aureus ATCC 43300; test: Broth microdilution MIC/MBC; details: ATCC43300 / MRSA
[3] = tested on: Micrococcus luteus ATCC 10240; test: Broth microdilution MIC/MBC; details: Micrococcus luteus, ATCC10240
[4] = tested on: Escherichia coli ATCC 25922; test: Broth microdilution MIC/MBC; details: ATCC25922
[5] = tested on: A549 cell line; test: MTT cytotoxicity assay; format: cell-based
Experimental: (§1) Among all the newly synthesized compounds, four compounds designated as: 14, 20, 21 and 27 were selected for further testing of their cytotoxic properties at the doses of 10, 25, 50, 75 and 100 µM. The cytotoxic properties of the above compounds were tested on the cancer cell lines, i.e., A549 (ECACC 86012804) (non-small-cell lung cancer), T47D (ECACC 85102201) (breast cancer), HeLa (ATCC® CCL-2™) (cervical cancer) and normal line L929 (NCTC clone 929, ATCC® CCL-1™) (mouse fibroblasts) using the MTT test for 24- and 48 h cultures.
(§2) A549 (ECACC 86012804) (non-small-cell lung cancer) and T47D (ECACC 85102201) (breast cancer) were obtained from ECACC and propagated in Dulbecco’s Minimal Essential Medium, supplemented with 2 mM of glutamine, antibiotics ([…] streptomycin, 1% of 100 U/L penicillin) and 10% Fetal Bovine Serum. HeLa (ATCC® CCL-2™) (cervical cancer) and L929 (NCTC clone 929, ATCC® CCL-1™) (mouse fibroblasts) cell lines were obtained from ATCC and propagated in the Eagle Minimal Essential Medium supplemented with antibiotics ([…] streptomycin, 1% of 100 U/L penicillin) and with 10% and 5% FBS, respectively. The cell line was routinely grown in 75 cm^2 tissue culture flasks and kept in an incubator (humidified atmosphere of 5% CO2 at 37 °C). All examined cell lines were tested against mycoplasma contamination with microbiological assays.
(§3) The cell viability of tested compounds (14, 20, 21 and 27) was assessed by the MTT assay. In brief, the exponentially growing cells were plated in 100 μL/well in 96-well plates. After 24 h culturing, the cells were treated with different concentrations of compounds (range 10–100 μM). After 24 and 48 h of incubation, 10 μL of 5 mg/mL MTT was added to each well and the plates were incubated at 37 °C for additional 4 h. The medium was subsequently removed, the purple-colored precipitates of formazan were dissolved in 100 μL of DMSO. The color absorbance was recorded at 570 nm using a BioTek model EPOCH ELISA plate reader. All experiments were performed in triplicate. The absorbance values were in the range of linearity of the Lambert–Beer law.

[6] = tested on: T47D cell line; test: MTT cytotoxicity assay; format: cell-based
Experimental: as §1, §2, §3

[7] = tested on: HeLa cell line; test: MTT cytotoxicity assay; format: cell-based
Experimental: as §1, §2, §3

[8] = tested on: Staphylococcus aureus ATCC 25923; test: Broth microdilution MIC/MBC; details: Staphylococcus aureus, ATCC25923
[9] = tested on: Staphylococcus aureus ATCC 29213; test: Broth microdilution MIC/MBC; details: ATCC29213
[10] = tested on: Salmonella typhimurium ATCC 14028; test: Broth microdilution MIC/MBC
[11] = tested on: Proteus mirabilis ATCC 12453; test: Broth microdilution MIC/MBC; details: ATCC12453

**Q.** What does the source list for O=C(N/N=C/c1cc(Cl)cc(I)c1O)c1cccc(I)c1 [Compound 20, N-[(5-chloro-2-hydroxy-3-iodophenyl)methylidene]-3-iodobenzohydrazide]?
**A.** MBC [1]: 31.2 µg/mL (≈ 59.4 µM); MIC [1]: 7.81 µg/mL (≈ 14.8 µM); MBC [2]: 7.81 µg/mL (≈ 14.8 µM); MIC [2]: 3.91 µg/mL (≈ 7.43 µM); MBC [3]: 7.81 µg/mL (≈ 14.8 µM); MIC [3]: 1.95 µg/mL (≈ 3.7 µM); MBC [4]: > 1000 µg/mL; MBC/MIC [4]: > 1; MIC [4]: 1000 µg/mL (≈ 1900 µM); melting point: 205 to 208 °C; cell proliferation ([5]; A549, 24h, 10 µM, Repeat No 1): 87%; cell proliferation ([5]; A549, 24h, 10 µM, Repeat No 2): 92%; cell proliferation ([5]; A549, 24h, 25 µM, Repeat No 1): 83%; cell proliferation ([5]; A549, 24h, 25 µM, Repeat No 2): 91%; cell proliferation ([5]; A549, 24h, 50 µM, Repeat No 1): 83%; cell proliferation ([5]; A549, 24h, 50 µM, Repeat No 2): 87%; cell proliferation ([5]; A549, 24h, 75 µM, Repeat No 1): 91%; cell proliferation ([5]; A549, 24h, 75 µM, Repeat No 2): 95%; cell proliferation ([5]; A549, 24h, 100 µM, Repeat No 1): 90%; cell proliferation ([5]; A549, 24h, 100 µM, Repeat No 2): 93%; cell proliferation ([5]; A549, 48h, 10 µM, Repeat No 1): 88%; cell proliferation ([5]; A549, 48h, 10 µM, Repeat No 2): 84%; cell proliferation ([5]; A549, 48h, 25 µM, Repeat No 1): 79%; cell proliferation ([5]; A549, 48h, 25 µM, Repeat No 2): 83%; cell proliferation ([5]; A549, 48h, 50 µM, Repeat No 1): 88%; cell proliferation ([5]; A549, 48h, 50 µM, Repeat No 2): 92%; cell proliferation ([5]; A549, 48h, 75 µM, Repeat No 1): 99%; cell proliferation ([5]; A549, 48h, 75 µM, Repeat No 2): 95%; cell proliferation ([5]; A549, 48h, 100 µM, Repeat No 1): 91%; cell proliferation ([5]; A549, 48h, 100 µM, Repeat No 2): 93%; cell proliferation ([6]; 24h, 10 µM, Repeat No 1): 78%; cell proliferation ([6]; 24h, 10 µM, Repeat No 2): 81%; cell proliferation ([6]; 24h, 25 µM, Repeat No 1): 76%; cell proliferation ([6]; 24h, 25 µM, Repeat No 2): 72%; cell proliferation ([6]; 24h, 50 µM, Repeat No 1): 77%; cell proliferation ([6]; 24h, 50 µM, Repeat No 2): 69%; cell proliferation ([6]; 24h, 75 µM, Repeat No 1): 77%; cell proliferation ([6]; 24h, 75 µM, Repeat No 2): 73%; cell proliferation ([6]; 24h, 100 µM, Repeat No 1): 87%; cell proliferation ([6]; 24h, 100 µM, Repeat No 2): 82%; cell proliferation ([6]; 48h, 10 µM, Repeat No 1): 80%; cell proliferation ([6]; 48h, 10 µM, Repeat No 2): 78%; cell proliferation ([6]; 48h, 25 µM, Repeat No 1): 79%; cell proliferation ([6]; 48h, 25 µM, Repeat No 2): 75%; cell proliferation ([6]; 48h, 50 µM, Repeat No 1): 76%; cell proliferation ([6]; 48h, 50 µM, Repeat No 2): 73%; cell proliferation ([6]; 48h, 75 µM, Repeat No 1): 83%; cell proliferation ([6]; 48h, 75 µM, Repeat No 2): 86%; cell proliferation ([6]; 48h, 100 µM, Repeat No 1): 81%; cell proliferation ([6]; 48h, 100 µM, Repeat No 2): 79%; cell proliferation ([7]; 24h, 10 µM, Repeat No 1): 87%; cell proliferation ([7]; 24h, 10 µM, Repeat No 2): 92%; cell proliferation ([7]; 24h, 25 µM, Repeat No 1): 81%; cell proliferation ([7]; 24h, 25 µM, Repeat No 2): 88%; cell proliferation ([7]; 24h, 50 µM, Repeat No 1): 78%; cell proliferation ([7]; 24h, 50 µM, Repeat No 2): 83%; cell proliferation ([7]; 24h, 75 µM, Repeat No 1): 85%; cell proliferation ([7]; 24h, 75 µM, Repeat No 2): 91%; cell proliferation ([7]; 24h, 100 µM, Repeat No 1): 81%; cell proliferation ([7]; 24h, 100 µM, Repeat No 2): 79%; cell proliferation ([7]; 48h, 10 µM, Repeat No 1): 88%; cell proliferation ([7]; 48h, 10 µM, Repeat No 2): 91%; cell proliferation ([7]; 48h, 25 µM, Repeat No 1): 73%; cell proliferation ([7]; 48h, 25 µM, Repeat No 2): 75%; cell proliferation ([7]; 48h, 50 µM, Repeat No 1): 87%; cell proliferation ([7]; 48h, 50 µM, Repeat No 2): 91%; cell proliferation ([7]; 48h, 75 µM, Repeat No 1): 99%; cell proliferation ([7]; 48h, 75 µM, Repeat No 2): 96%; cell proliferation ([7]; 48h, 100 µM, Repeat No 1): 93%; cell proliferation ([7]; 48h, 100 µM, Repeat No 2): 94%; MBC [8]: 3.91 µg/mL (≈ 7.43 µM); MIC [8]: 1.95 µg/mL (≈ 3.7 µM); MBC [9]: 3.91 µg/mL (≈ 7.43 µM); MIC [9]: 3.91 µg/mL (≈ 7.43 µM); MBC ([10]; Salmonella enterica): > 1000 µg/mL; MIC ([10]; Salmonella enterica): 1000 µg/mL (≈ 1900 µM); MBC/MIC ([10]; Salmonella typhimurium ATCC 14028): > 1; MBC [11]: 1000 µg/mL (≈ 1900 µM); MBC/MIC [11]: 2; MIC [11]: 500 µg/mL (≈ 950 µM)
